Data reported in patent US20160113900A1, “INHIBITORS OF MITOCHONDRIAL STAT3 AND USES THEREOF IN MODULATION OF MAST CELL EXOCYTOSIS” (Yissum Research Development Company of the Hebrew …, priority 2014, published 2016).

Columns and labels:
BMMC = test: Measurements of secreted mediators (ELISA) in activated BMMC; type: cell-based, mouse; conditions: immunologically activated BMMC, 60 μM Stattic 20 min
Procedure: 1×106 BMMC were immunologically activated as described above. After IgE incubation, the cells were washed three times in PBS and incubated with DNP-albumin (Sigma-Aldrich) for 30 mM in complete growth medium. Supernatant was collected and Granzyme B and TNFα content were measured using ELISA Kits (eBioscience).

[1] = test system: cytochrome c oxidase (COX, complex 4); test: ETC complex activity analysis in treated RBL cells: complex 4; type: cell-based, rat; conditions: 60 μM Stattic, 30 min
Procedure: (§1) The enzymatic activities of respiratory chain complexes were measured at 37° C. by standard spectrophotometric methods as previously described5, 6. Briefly, complex II was measured as succinate dehydrogenase (SDH) based on the succinate-mediated phenazine methosulfate reduction of dichloroindophenol at 600 nm Complex 2+3 were measured as succinate cytochrome c reductase and after the reduction of oxidized cytochrome c at 550 nm. Complex 4 (cytochrome c oxidase) was measured by following the oxidation of reduced cytochrome c at 550 nm.
(§2) Citrate synthase (CS), an ubiquitous mitochondrial matrix enzyme, serving as a control, was measured in the presence of acetylCoA and oxaloacetate by monitoring the liberation of CoASH coupled to 5′,5′-dithiobis(2-nitrobenzoic) acid at 412 nm. Activities are presented as a ratio to CS. Protein concentration was determined by the Lowry method and calculated according to a bovine serum albumin (BSA) standard curve.

RBL cells [2] = test: Oxygen consumption (Seahorse XF analyzer) in RBL cells; type: cell-based, rat; conditions: RBL cells, 60 μM Stattic, 20 min
Procedure: (§3) RBL-2H3 cells were maintained in RPMI 1640 medium as previously described1. Bone marrow was isolated from 5-6 week-old mice, and BMMC were cultured in RPMI medium supplemented with 20 ng/ml interleukin-3 (IL-3) and 20 ng/ml SCF as previously described2, 3. Cells were generally grown for a minimum of 4 weeks and used when >90% of the population expressed FcεRI. BMMC and RBL cells were sensitized first with anti-DNP IgE monoclonal antibody (SPE-7; Sigma-Aldrich Corp.) and then challenged with DNP-BSA (Sigma-Aldrich Corp.). IgE antibody was centrifuged (18,000 g, 5 min) before use to remove aggregates. […] For glycolysis elimination cells were maintained in glucose-free RPMI supplemented with 10% dialyzed fetal calf serum and 5 mM galactose.
Oxygen consumption rate (OCR) was measured using an XF24 extracellular flux analyzer (Seahorse Biosciences, North Billeric, Mass., USA).

[3] = test system: succinate cytochrome c reductase (complex 2+3); test: ETC complex activity analysis in treated RBL cells: complex 2+3; type: cell-based, rat; conditions: 60 μM Stattic, 30 min, ratio to citrate synthase
Procedure: as §1, §2

plasma histamine = test: In vivo histamine release assay, passive systemic IgE-mediated anaphylaxis model
Procedure: C3H 6-7 week male and female WT mice were purchased from Jackson Lab (Cambridge, Mass., USA), mice were fed a regular diet and with drinking water ad libitum. Experiments were approved by The Hebrew University Ethical Committee for Animal Experimentation.
WT C3H mice were sensitized with 3 μg murine IgE anti-DNP mAb SPE-7 by means of intravenous injection in the tail vein. Twenty-four hours later, mice were treated with 40 mg/kg of static dissolved in corn oil or corn oil alone for 2.5 hours, then mice were challenged with i.v. injection of DNP-BSA (250 μg per mouse). 100 μl of blood was collected immediately and added to an equal volume of pre-cold Alsever's Solution. Blood was centrifuged 2000 g for […] and plasma supernatant was collected. Plasma histamine levels were determined by using competitive ELISA (IBL International Gmbh, Hamburg, Germany).
STAT3's role in vivo was investigated by evaluating the response to allergic stimulation in Stattic-treated mice. The passive systemic IgE-mediated anaphylaxis model was used. Mice were injected (i.v.) with IgE anti-DNP. Twenty four hours later they were injected (i.p.) with Stattic (80 mg/kg) or corn oil which was used as control. Three and a half hours later the mice were challenged with DNP-BSA for 1.5 minutes. Plasma was collected, and histamine levels were measured by competitive ELISA. Histamine secretion in Stattic-treated mice was 43% less than that in control mice (FIG. 17, p<0.05).
Mitocur-1/3 effectiveness in vivo was investigated by evaluating the response to allergic stimulation in Mitocur-1/3-treated mice. The passive systemic IgE-mediated anaphylaxis model was used. Mice were injected (i.v.) with IgE anti-DNP. Twenty four hours later they were injected (i.p.) with Mitocur-1 (80 mg/kg) and Mitocur-3 (40 mg/kg). Corn oil was used as control. Three and a half hours later the mice were challenged with DNP-BSA for 1.5 minutes. Plasma was collected, and histamine levels were measured by competitive ELISA. Histamine secretion in Mitocur-1-treated mice was 35% less than that in control mice (FIG. 22A, p<0.05).

RBL cells [4] = test: β-Hexosaminidase release assay (degranulation) in RBL cells; type: cell-based, rat; conditions: RBL cells
Procedure: as §3
1×104 RBL or 3×104 BMMC were immunologically activated as described above. After IgE incubation, the cells were washed three times with 5 mL of degranulation buffer (NaCl 130 mM, KCl 5 mM, Glucose 5.6 mM, MgCl2 1 mM, CaCl2 1.2 mM, Hepes pH 7.4 10 mM, BSA 0.1%) and resuspended in 200 μL of the same buffer with DNP-albumin for 30 min. The release of β-hexosaminidase was determined in triplicates in a 96-well plate. Aliquots (20 μL) of supernatants and cell lysates were incubated for 30 minutes with 100 μL of substrate solution (1.3 mg/mL p-nitrophenyl-b-D-2-acetamido-2-deoxyglucopyranozide in 0.1 M citrate [pH 4.51]). The reaction was stopped by the addition of 200 μL of 0.2 M glycine (pH 10.7). The plate OD was read in an enzyme-linked immunosorbent assay (ELISA) reader at a wavelength of 405 nm Percent release values for each experimental condition were calculated3.

CBMC = test: β-Hexosaminidase release assay (degranulation) in human cord blood-derived mast cells; type: cell-based; conditions: 60 μM Stattic 5 min before α-human-IgE, control cells 20.9±4.9

`O=[N+]([O-])c1ccc2c(c1)S(=O)(=O)C=C2` [Stattic, 6-Nitrobenzo[b]thiophene 1,1-dioxide, reference compound] was tested, and the “Granzyme B secretion” value (BMMC) was “greatly reduced”, the “change in cytochrome c oxidase (COX, complex 4) activity” value [1] was “No significant change” and the “reduction in oxygen consumption” value (RBL cells [2]) was 18.6±8.3%. The “reduction in complex 2+3 activity” value [3] was 50.8±6.1%, the “histamine secretion less than in control mice” value (plasma histamine; Stattic 80 mg/kg i.p., 3.5 h before DNP-BSA challenge) was 43% and the “decrease in histamine secretion” value (plasma histamine; mice, Stattic 40 mg/kg, after two and a half hours (data not shown)) was 32.4%. The degranulation (RBL cells [4]; 5 min incubation with Stattic (data not shown)) was “totally abolished”, the β-hexosaminidase release (RBL cells [4]; IgE/DNP-BSA, 60 μM Stattic 20 min) was “completely abolished” and the “effect on IgE-Ag mediated β-hexosaminidase release, dependence on concentration” value (RBL cells [4]; stated concentrations of Stattic (FIG. 6)) was “concentration dependent”. For the same compound, the “degranulation (β-hexosaminidase release)” value (CBMC) was 3.5±1.9.
